Assay results as given in ChEMBL document CHEMBL5150016, “Inhibiting Sodium Taurocholate Cotransporting Polypeptide in HBV-Related Diseases: From Biological Function to Therapeutic Potential” (J Med Chem, 2022).
Values after ≈ are worked out from the molar mass of the structure shown.

Experiments:
[1] = target: T1, Hepatic sodium/bile acid cotransporter (Homo sapiens, UniProt Q14973); test: Inhibition of HBV subgenotype D3 [3H]-myr-preS1 (2 to 48 residues) peptide binding to human NTCP in HEK293 cells preincubated for 5 mins followed by substrate addition and measured after 10 mins using by microplate scintillation counter analysis; type: cell-based
T1 sequence (Q14973 whole entry): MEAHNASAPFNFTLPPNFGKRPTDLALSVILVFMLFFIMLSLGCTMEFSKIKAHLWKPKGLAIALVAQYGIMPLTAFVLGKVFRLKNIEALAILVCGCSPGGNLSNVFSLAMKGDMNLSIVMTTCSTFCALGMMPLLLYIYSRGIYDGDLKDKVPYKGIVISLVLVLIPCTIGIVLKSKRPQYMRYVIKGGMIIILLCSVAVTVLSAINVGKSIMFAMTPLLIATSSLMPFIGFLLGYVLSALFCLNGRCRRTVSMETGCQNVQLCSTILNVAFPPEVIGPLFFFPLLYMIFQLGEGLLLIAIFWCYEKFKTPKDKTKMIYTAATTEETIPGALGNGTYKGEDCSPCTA

Hepatitis B virus [2] = test: Antiviral activity against HBV infected human HepG2-hNTCP cells assessed as reduction of HBV DNA level preincubated for 3 hrs followed by viral infection for 16 hrs further compound washout and measured 6 days post infection by qPCR analysis; type: functional, organism-based
Hepatitis B virus [3] = test: Antiviral activity against HBV infected HepG2 2.2.15 cells assessed as reduction in HBeAg level at 50 microg/ml for 48 hrs by ELISA; type: functional; set-up: scale not given: the % may be the effect or the level left; settings: dose 50 µg/ml
Hepatitis B virus [4] = test: Antiviral activity against HBV infected HepG2 2.2.15 cells assessed as reduction in HBsAg level at 50 microg/ml for 48 hrs by ELISA; type: functional, organism-based; set-up: Activity: scale not given: the % may be the effect or the level left; settings: for Activity: dose 50 µg/ml, time 48 hrs
Hepatitis B virus [5] = test: Antiviral activity against HBV infected in human HepG2-hNTCP cells assessed as reduction in intracellular HBV RNA incubated for 16 hrs followed by compound washout and measured after 6 days post infection by ELISA; type: functional, organism-based
Hepatitis B virus [6] = test: Antiviral activity against HBV infected HepG2 cells assessed as reduction in HBsAg level; type: functional, organism-based; settings: HepG2 2.2.15
Hepatitis B virus [7] = test: Antiviral activity against HBV infected HepG2 cells assessed as reduction in HBeAg level; type: functional, organism-based; settings: HepG2 2.2.15
[8] = target: T1, Hepatic sodium/bile acid cotransporter; test: Inhibition of TAMRA-labeled preS1-peptide binding to human NTCP in HepG2-hNTCP cells incubated for 30 mins by […]; type: cell-based
[9] = target: T1, Hepatic sodium/bile acid cotransporter; test: Inhibition of human NTCP mediated TCA uptake in HepG2-hNTCP cells incubated for 15 mins using [3H] taurocholic acid as substrate by liquid scintillation counter analysis; type: cell-based
Hepatitis delta virus [10] = test: Antiviral activity against hepatitis D virus infected in human HepG2-hNTCP cells assessed as reduction in viral replication preincubated for 5 mins followed by viral infection measured after 6 hrs post infection by RT-qPCR analysis; type: functional, organism-based
HepG2 = test: Antiproliferative activity against human HEpG2 cells; type: functional, cell-based
Hepatitis B virus [11] = test: Antiviral activity against HBV infected HepG2 2.2.15 cells assessed as reduction in HBsAg level and measured after 9 days by ELISA; type: functional, organism-based; settings: HepG2 2.2.15, 216 h
Hepatitis B virus [12] = test: Antiviral activity against HBV infected HepG2 2.2.15 cells assessed as reduction in HBeAg level and measured after 9 days by ELISA; type: functional, organism-based; settings: HepG2 2.2.15, 216 h
[13] = target: T1, Hepatic sodium/bile acid cotransporter; test: Inhibition of preS1-peptide binding to human HA-tagged NTCP in U2OS expresseing NTCP in incubated for 24 hrs using Myrcludex B as substrate by competitive binding assay; type: cell-based
[14] = target: T1, Hepatic sodium/bile acid cotransporter; test: Inhibition of human NTCP mediated TCA uptake in U2OS expresseing HA-tagged NTCP cells preincubated for 10 mins followed by substrate addition and measured after 2 mins using [3H]-taurocholate as substrate by liquid scintillation counter analysis; type: cell-based
Hepatitis B virus [15] = test: Antiviral activity against HBV infected in human HepG2-hNTCP cells assessed as reduction in HBsAg level preincubated for 2 hrs followed by viral infection for 16 hrs further compound washout and measured after 12 days post infection by ELISA; type: functional, organism-based
Hepatitis B virus [16] = test: Antiviral activity against HBV infected in human DMSO differentiated imHC cells assessed as reduction in viral load at 30 uM preincubated for 2 hrs followed by viral infection for 18 hrs followed by compound washout and further treated with fresh compound for 24 hrs and measured on day 7 post infection by real-time qPCR analysis; type: functional; set-up: scale not given: the % may be the effect or the level left; settings: time 44 hrs
[17] = target: T1, Hepatic sodium/bile acid cotransporter; test: Binding affinity to human NTCP assessed as dissociation constant by isothermal titration calorimetry
Hepatitis B virus [18] = test: Antiviral activity against HBV infected in human DMSO differentiated imHC cells assessed as reduction in intracellular HBV DNA at 30 uM preincubated for 2 hrs followed by viral infection for 18 hrs followed by compound washout and further treated with fresh compound for 24 hrs and measured on day 7 post infection by real-time qPCR analysis; type: functional; set-up: scale not given: the % may be the effect or the level left; settings: time 44 hrs
Hepatitis B virus [19] = test: Antiviral activity against HBV infected human DMSO differentiated HuS-E/2 cells assessed as reduction of HBV core protein level incubated for 20 hrs by Western blot analysis; type: functional, organism-based; settings: HuS-E/2, 20 h
Hepatitis B virus [20] = test: Antiviral activity against HBV infected human DMSO differentiated HuS-E/2 cells overexpressing NTCP assessed as assessed as inhibition of viral entry by measuring HBV mRNA level at 20 uM by qPCR analysis relative to control; type: functional
Hepatitis B virus [21] = test: Antiviral activity against HBV infected human DMSO differentiated HuS-E/2 cells overexpressing NTCP assessed as assessed as inhibition of viral entry by measuring HBV mRNA level by qPCR analysis; type: functional, organism-based
Hepatitis delta virus [22] = test: Antiviral activity against hepatitis D virus infected in human Huh-7 cells overexpressing NTCP assessed as reduction in intracellular HDV RNA for 20 hrs followed by viral infection further compound washout and measured after 6 days post infection by RT-qPCR analysis; type: functional, organism-based
[23] = target: T1, Hepatic sodium/bile acid cotransporter; test: Binding affinity to NTCP (unknown origin)

SMILES: C=C(C)[C@@H]1CC[C@]2(/C=N/O)CC[C@]3(C)[C@H](CC[C@@H]4[C@@]5(C)CC[C@H](O)C(C)(C)[C@@H]5CC[C@]43C)[C@@H]12
- IC50 [1]: 11 µM

SMILES: Cc1cc(OCCCS(C)(=O)=O)cc(C)c1-c1cccc(COc2ccc3c(c2)OC[C@H]3CC(=O)O)c1
- IC50 (Hepatitis B virus [2]): 30 µM

SMILES: C[C@H]1O[C@H](Oc2c(-c3cc(O)c(O)c(O)c3)oc3cc(O)cc(O)c3c2=O)[C@@H](O)[C@@H](O)[C@@H]1O
- Activity (Hepatitis B virus [3]): 35%
- Activity (Hepatitis B virus [4]): 44%

SMILES: O=C1N=C(O)S/C1=C\c1ccc(OCc2ccc(-c3ccccc3)cc2)cc1
- IC50 (Hepatitis B virus [5]): 3.8 µM

SMILES: Cc1ccc(C(=O)NCC(=O)N/N=C/c2ccccc2OCc2ccccc2Cl)cc1
- IC50 (Hepatitis B virus [6]): 3.95 ng/mL (≈ 0.00906 µM)
- IC50 (Hepatitis B virus [7]): 0.015 µg/mL (≈ 0.0344 µM)

SMILES: C=C(C)[C@@H]1CC[C@]2(CO)CC[C@]3(C)[C@H](CC[C@@H]4[C@@]5(C)CC[C@H](OC(=O)/C=C/c6ccc(O)c(O)c6)C(C)(C)[C@@H]5CC[C@]43C)[C@@H]12
- IC50 [1]: 6 µM

SMILES: CCCCCCc1c(C)c2ccc(OCC(=O)NC(Cc3ccccc3)C(=O)O)cc2oc1=O (stereo not given)
- IC50 [8]: 145 µM
- IC50 [9]: 12.5 µM

SMILES: Cc1c(Cc2ccccc2)c(=O)oc2cc(OCC(=O)NC(CSCc3ccccc3)C(=O)O)ccc12 (stereo not given)
- IC50 [8]: 150 µM
- IC50 [9]: 13.3 µM

SMILES: COc1ccc([C@H](O)[C@H](c2ccccn2)[C@@H](Nc2ccccn2)c2ccccc2)cc1
- IC50 (Hepatitis delta virus [10]): 70 µM
- IC50 [1]: 16.5 µM

SMILES: O=C1NC(=O)/C(=C/c2ccc(-c3ccc(-c4cccc5ccccc45)cc3)cc2)S1
- IC50 (Hepatitis B virus [5]): 1.7 µM

SMILES: O=Cc1cccc([C@@H]([C@H](Nc2ccccn2)c2ccccc2)[C@@H](O)c2ccccc2)n1
- IC50 (Hepatitis delta virus [10]): 15 µM
- IC50 [1]: 16 µM

SMILES: O[C@H](c1ccc([C@@H](O)[C@@H](c2ccccn2)[C@H](Nc2ccccn2)c2ccccc2)cc1)[C@@H](c1ccccn1)[C@H](Nc1ccccn1)c1ccccc1
- IC50 (Hepatitis delta virus [10]): 70 µM
- IC50 [1]: 6.5 µM

SMILES: CCCCCCc1cc2ccc(OCC(=O)NC(CCSC)C(=O)O)cc2oc1=O (stereo not given)
- IC50 [8]: 238 µM
- IC50 [9]: 17.8 µM

SMILES: CC(C)(C)OC(=O)N1CCN(CC(=O)NCc2cccc(CNS(=O)(=O)c3ccc(C(F)(F)F)cc3)c2)CC1
- IC50 (Hepatitis B virus [6]): 3.24 ng/mL (≈ 0.00568 µM)
- IC50 (HepG2): 7.36 µM
- IC50 (Hepatitis B virus [7]): 0.00764 µg/mL (≈ 0.0134 µM)

SMILES: C=C(CO)[C@@H]1CC[C@]2(COC(C)=O)CC[C@]3(C)[C@H](CC[C@@H]4[C@@]5(C)CC[C@H](OC(C)=O)C(C)(C)[C@@H]5CC[C@]43C)[C@@H]12
- IC50 [1]: 8 µM

SMILES: O=C1NC(=O)C(Cc2ccc(OCc3ccc(-c4ccccc4)cc3)cc2)S1 (stereo not given)
- IC50 (Hepatitis B virus [5]): 5.2 µM

SMILES: Cc1c(OCC(=O)NC(CSCc2ccccc2)C(=O)O)ccc2c3c(c(=O)oc12)CCCC3 (stereo not given)
- IC50 [8]: 123 µM
- IC50 [9]: 16.2 µM

SMILES: CN1CCCC(n2nc(Cc3ccc(Cl)cc3)c3ccccc3c2=O)CC1 (stereo not given) [AZELASTINE]
- IC50 (Hepatitis B virus [11]): 7.5 µM
- IC50 (Hepatitis B virus [12]): 3.7 µM

SMILES: C=C(C)[C@@H]1CC[C@]2(COC(C)=O)CC[C@]3(C)[C@H](CC[C@@H]4[C@@]5(C)CC[C@H](OC(C)=O)C(C)(C)[C@@H]5CC[C@]43C)[C@@H]12 [BETULIN DIACETATE]
- IC50 [1]: 199 µM

SMILES: COc1cc(-c2ccc(/N=N/c3ccc4c(S(=O)(=O)O)cc(S(=O)(=O)O)c(N)c4c3O)c(OC)c2)ccc1/N=N/c1ccc2c(S(=O)(=O)O)cc(S(=O)(=O)O)c(N)c2c1O [CHICAGO SKY BLUE]
- IC50 [13]: > 1000 nM
- IC50 [14]: 7.1 µM

SMILES: CC1(COc2ccc(CC3SC(=O)NC3=O)cc2)CCCCC1 (stereo not given) [CIGLITAZONE]
- IC50 (Hepatitis B virus [15]): 5 µM

SMILES: COc1cc(/C=C/C(=O)CC(=O)/C=C/c2ccc(O)c(OC)c2)ccc1O [CURCUMIN]
- Activity (Hepatitis B virus [16]): 55%
- Kd [17]: 64.3 µM
- Activity (Hepatitis B virus [18]): 67%

SMILES: O=C(O[C@@H]1Cc2c(O)cc(O)cc2O[C@@H]1c1cc(O)c(O)c(O)c1)c1cc(O)c(O)c(O)c1 [EPIGALOCATECHIN GALLATE]
- IC50 (Hepatitis B virus [19]): 10 µM

SMILES: CC(C)[C@@H](C)/C=C/[C@@H](C)[C@H]1CC[C@@H]2[C@]1(C)CC[C@H]1[C@]23C=C[C@]2(C[C@@H](O)CC[C@]12C)OO3 [ERGOSTEROL PEROXIDE]
- inhibition at 20 µM (Hepatitis B virus [20]): 75%
- EC50 (Hepatitis B virus [21]): 9.64 µM

SMILES: O=C1[C@H](CC[C@H](O)c2ccc(F)cc2)[C@@H](c2ccc(O)cc2)N1c1ccc(F)cc1 [EZETIMIBE]
- EC50 (Hepatitis delta virus [22]): 10.4 µM
- Ki [23]: 25 µM

SMILES: CCCCC1=NC2(CCCC2)C(=O)N1Cc1ccc(-c2ccccc2-c2nnn[nH]2)cc1 [IRBESARTAN]
- EC50 (Hepatitis delta virus [22]): 9.4 µM

SMILES: O=c1c(O)c(-c2ccc(O)c(O)c2)oc2cc(O)cc(O)c12 [QUERCETIN]
- Activity (Hepatitis B virus [3]): 62%
- Activity (Hepatitis B virus [4]): 60%

SMILES: CC(C)c1nc(CN(C)C(=O)N[C@H](C(=O)N[C@@H](Cc2ccccc2)C[C@H](O)[C@H](Cc2ccccc2)NC(=O)OCc2cncs2)C(C)C)cs1 [RITONAVIR]
- EC50 (Hepatitis delta virus [22]): 9.1 µM

SMILES: CN(CCOc1ccc(CC2SC(=O)NC2=O)cc1)c1ccccn1 (stereo not given) [ROSIGLITAZONE]
- IC50 (Hepatitis B virus [4]; Hepatitis B virus, HepG2 2.2.15, 48 h): 5.1 µM

SMILES: O=C(O)c1cc(/N=N/c2ccc(S(=O)(=O)Nc3ccccn3)cc2)ccc1O [SULFASALAZINE]
- IC50 [13]: > 1000 nM

SMILES: Cc1c(C)c2c(c(C)c1O)CCC(C)(COc1ccc(CC3SC(=O)NC3=O)cc1)O2 (stereo not given) [TROGLITAZONE]
- IC50 (Hepatitis B virus [15]): 10 µM

SMILES: COc1cc(C(=O)NS(=O)(=O)c2ccccc2C)ccc1Cc1cn(C)c2ccc(NC(=O)OC3CCCC3)cc12 [ZAFIRLUKAST]
- IC50 [13]: > 1000 nM
